Assay results published in patent US11938127B2, “Methods and compositions relating to steroid hormone receptor-dependent proliferative disorders” (Wayne State University, priority 2021, dated 2024).
Read-outs that look alike come from different tables or passages of the source. One block for each compound: values may come before it.

How the values were obtained:
binding of AR to ELK1 = binding of AR to ELK1 (Homo sapiens (Human), UniProt P10275); assay: BRET assay for inhibition of in situ binding of AR to ELK1 in HEK293T cells; format: cell-based; conditions: HEK-293T, read-out: inhibition of BRET signal for binding of AR to ELK1
binding of AR to ELK1, sequence (P10275 whole entry): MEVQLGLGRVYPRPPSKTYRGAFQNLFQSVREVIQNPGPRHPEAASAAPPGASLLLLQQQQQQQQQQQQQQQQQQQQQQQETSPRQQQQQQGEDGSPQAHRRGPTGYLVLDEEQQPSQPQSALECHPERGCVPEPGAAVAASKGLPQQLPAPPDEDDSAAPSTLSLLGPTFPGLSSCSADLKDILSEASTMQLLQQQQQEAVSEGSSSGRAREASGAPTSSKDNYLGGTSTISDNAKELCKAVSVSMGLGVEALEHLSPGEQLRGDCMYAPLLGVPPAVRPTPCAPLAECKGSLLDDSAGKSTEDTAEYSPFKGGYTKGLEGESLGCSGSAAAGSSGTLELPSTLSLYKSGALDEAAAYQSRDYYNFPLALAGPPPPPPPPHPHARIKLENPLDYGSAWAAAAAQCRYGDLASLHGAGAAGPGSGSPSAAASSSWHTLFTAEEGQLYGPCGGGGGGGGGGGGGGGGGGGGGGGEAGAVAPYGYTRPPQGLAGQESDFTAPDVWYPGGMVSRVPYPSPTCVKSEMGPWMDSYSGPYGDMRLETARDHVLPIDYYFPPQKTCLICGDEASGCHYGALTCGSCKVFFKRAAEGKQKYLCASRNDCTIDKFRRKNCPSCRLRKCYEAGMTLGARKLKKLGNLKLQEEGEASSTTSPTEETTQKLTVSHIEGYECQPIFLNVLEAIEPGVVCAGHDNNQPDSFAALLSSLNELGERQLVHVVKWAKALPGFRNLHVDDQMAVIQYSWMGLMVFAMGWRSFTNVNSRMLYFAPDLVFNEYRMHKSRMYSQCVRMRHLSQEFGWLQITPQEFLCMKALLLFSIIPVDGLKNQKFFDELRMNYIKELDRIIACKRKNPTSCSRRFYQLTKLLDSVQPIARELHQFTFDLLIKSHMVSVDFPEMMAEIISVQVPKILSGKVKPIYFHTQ
Method: (§1) HEK293T cells were transfected with Rluc-AR alone, and alongside Turbo-Elk at a 4:1 ratio of ELK1:AR using Mirus LT1 reagent. The 4:1 ratio was determined to be the optimal ratio for the inhibition assay after testing different ratios of Turbo-Elk:Rluc-AR. 24 hours later, cells were treated with DMSO (vehicle control) or KCI838 (0.4 uM and 10 uM) and left for 24 hours. They were then trypsinized and seeded in 96 well white-bottomed plates at 100,000 per well (in quadriplicate) in media lacking phenol red (with DMSO or drug as required), left for 2 hours to settle, and then treated with 25 uM coelenterazine and luminescence read at 535 and 635 nm on a Clariostar instrument. BRET readings were calculated as 635/535 ratio minus 635/535 ratio for Rluc-AR only transfected controls. Cell lysates were probed by western blot for AR or ELK1, probing for GAPDH as the loading control. Cell viability in the presence of KCI838 was ensured by treating HEK293 cells for an extended period (3 days) with the compound or vehicle control and measuring viability using trypan blue staining.
HEK293T cells were transfected with Rluc-AR alone, and alongside Turbo-Elk. 24 hours later, cells were treated with KCI838 at the indicated doses. The following day, the cells were reseeded and allowed to settle for two hours before the BRET assay was performed. […]

HEK293 cells = assay: Viability of HEK293 cells (trypan blue); format: cell-based; conditions: 3 days treatment, 0.4 μM or 10 μM
Method: as §1
To ensure that KCI838 was not toxic to the HEK293 cells, viability of the cells was tested following extended (3 days) treatment with, vehicle, 0.4 μM, or 10 μM KCI838. Viable cells were counted after three days and the data was plotted as percent of untreated cells.

[1] = Repeated intraperitoneal administration to mice (toxicity, body weight); format: in vivo, BalbC mice; conditions: for initial weight loss: male BalbC mice, intraperitoneal
Method: KCI838 was repeatedly administered by intraperitoneal injection to two groups of 6-week old male BalbC mice at doses of 200 mg/Kg and 100 mg/Kg.

UGT1A1 [2] = target: UGT1A1 (Homo sapiens (Human), UniProt P22309); assay: UGT1A1 inhibition assay with human UGT1A1-expressed Supersomes; format: in vitro ADME
UGT1A1 (Homo sapiens (Human), UniProt P22309), sequence (P22309 26-533): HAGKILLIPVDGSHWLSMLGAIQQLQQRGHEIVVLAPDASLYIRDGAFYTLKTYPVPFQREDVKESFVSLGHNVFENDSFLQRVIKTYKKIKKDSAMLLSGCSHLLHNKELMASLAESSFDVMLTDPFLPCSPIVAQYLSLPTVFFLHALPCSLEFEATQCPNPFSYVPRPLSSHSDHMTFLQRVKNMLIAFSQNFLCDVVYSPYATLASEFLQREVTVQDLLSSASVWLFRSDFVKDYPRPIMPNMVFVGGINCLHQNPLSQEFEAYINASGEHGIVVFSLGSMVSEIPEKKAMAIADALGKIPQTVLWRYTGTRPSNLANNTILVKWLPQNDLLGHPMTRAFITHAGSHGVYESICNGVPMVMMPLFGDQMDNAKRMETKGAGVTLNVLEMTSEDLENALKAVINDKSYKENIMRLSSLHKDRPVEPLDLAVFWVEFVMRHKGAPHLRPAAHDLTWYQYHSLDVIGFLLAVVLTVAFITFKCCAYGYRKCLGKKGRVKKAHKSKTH
Method: KCI838 was incubated at seven increasing concentrations with human UGT1A1-expressed Supersomes™ (0.25 mg/mL), alamethicin (25 μg/mL) and UDPGA (5 mM) in the presence of the probe substrate estradiol (10 μM) for 30 min at 37° C. The UGT1A1 inhibitor, atazanavir, was screened alongside the test compounds as a positive control. The reactions were terminated by quenching with one volume of methanol containing an analytical internal standard. The samples will be centrifuged at 5000 rpm for 10 min at 4° C. The metabolites were monitored by LC-MS/MS and a decrease in the formation of the metabolite compared to the vehicle control was used to calculate an IC50 value (test compound concentration which produces 50% inhibition).

22Rv1 cells [3] = assay: Colony formation assay in 22Rv1 cells; format: cell-based; conditions: 22Rv1 CRPC cells
Method: (§2) 22Rv1 cells were plated in triplicate at a density of 2000 cells/well in 6-well plates in 48-hour conditioned medium (phenol-red free RPMI1640 10% FBS, 1% penicillin/streptomycin, 1% L-glutamine) obtained from monolayer cultures of the same cells, as previously described. 48 h after plating, the cells were treated with various concentrations of the test compounds in the same media. The test compounds and media were replenished every 48 hours until colonies developed in the control untreated wells (in 10 days). The colonies were then stained with crystal violet and counted.
The ability of KCI837 to inhibit colony formation in castration and enzalutamide resistant prostate cancer cells was tested. 22Rv1 cells were seeded in triplicate six well plates in phenol red-free conditioned media. 48 hours later, treatment with KCI837 at the indicated doses was initiated. KCI837 was replenished every 48 hours. Seven days later, colonies were fixed and stained with crystal violet. Colony counts are plotted.

UGT1A1 [4] = assay: Hepatic enzyme induction (mRNA) in primary human hepatocytes, UGT1A1; format: in vitro ADME; conditions: 72 hours, doses of 0.5 uM and 5 uM
Method: (§3) Total RNA from cells was isolated using the PureLink RNA Mini Kit (Invitrogen, ThermoFisher Scientific) according to the manufacturer's protocol. Reverse transcription was performed using 30 ng of total RNA and the High Capacity cDNA Reverse Transcription kit (Applied Biosystems, ThermoFisher Scientific) according to the vendor's protocol. cDNA was measured by quantitative real time PCR using the StepOnePlus Real-Time PCR System (Applied Biosystems, Invitrogen) and TaqMan Fast Universal PCR Master Mix (Applied Biosystems, ThermoFisher Scientific). All primers and TaqMan probes were purchased from the Applied Biosystems inventory (ThermoFisher Scientific). All samples were measured in triplicate and normalized to the values for GAPDH.
(§4) Primary human hepatocytes used were the “Cryo Human Hepatocytes” from Gibco. 24 hours prior to treatment, cells were plated at 350,000 cells/well (700,000 cells/mL) in the following media: Williams E medium (WEM, A1217601), 2.5 mL FBS, 5 μL, 10 mM dexamethasone (from Gibco Thawing/Plating Supplement Pack, CM3000), 1.8 mL thawing/plating cocktail (from Gibco Thawing/Plating Supplement Pack, CM3000). […] The mRNAs for the following hepatic enzymes were quantified as described above. […]

CYP1A2 [5] = target: CYP1A2 (Homo sapiens (Human), UniProt P05177); assay: CYP1A2 inhibition assay in pooled human liver microsomes; format: in vitro ADME; conditions: standard enzymatic activity assay
CYP1A2 (Homo sapiens (Human), UniProt P05177), sequence (P05177 whole entry): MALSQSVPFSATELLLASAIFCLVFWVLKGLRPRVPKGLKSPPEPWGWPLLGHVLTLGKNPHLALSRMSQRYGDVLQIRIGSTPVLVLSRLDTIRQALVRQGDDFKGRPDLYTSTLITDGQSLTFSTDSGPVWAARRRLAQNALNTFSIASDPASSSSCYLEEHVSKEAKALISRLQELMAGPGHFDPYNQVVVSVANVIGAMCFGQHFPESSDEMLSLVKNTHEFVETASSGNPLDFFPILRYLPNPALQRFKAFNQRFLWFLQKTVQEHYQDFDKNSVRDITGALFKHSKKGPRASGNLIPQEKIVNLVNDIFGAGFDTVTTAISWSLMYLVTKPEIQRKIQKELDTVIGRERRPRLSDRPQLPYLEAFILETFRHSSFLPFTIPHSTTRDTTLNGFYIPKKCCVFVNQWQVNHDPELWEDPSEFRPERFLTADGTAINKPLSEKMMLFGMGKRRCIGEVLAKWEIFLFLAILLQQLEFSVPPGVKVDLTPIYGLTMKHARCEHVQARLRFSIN
Method: The quenched samples were incubated at 4° C. for 10 min and centrifuged at 4° C. for 10 min.

CYP1A2 [6] = assay: Hepatic enzyme induction (mRNA) in primary human hepatocytes, CYP1A2; format: in vitro ADME; conditions: 72 hours
Method: as §3, §4

22Rv1-Lenti AR cells = assay: Colony formation in 22Rv1 cells overexpressing AR; format: cell-based; conditions: AR overexpressing 22Rv1 cells
Method: as §2
(§5) AR expressing lentiviral expression plasmid pCDH-CMV-MCS-EF1-puro (System BioSciences) or the plasmid vector alone (control), was packaged in 293FT cells. Virus-containing media was harvested at 48 and 72 hours after packaging and stored at −80° C. 48 hours before infection, 22Rv1 cells were plated at 30-50% confluence in 10 cm dishes in phenol-red free medium supplemented with 10% heat-inactivated FBS and 2 mM L-glutamine. On the day of infection, cells were infected with the lentivirus with polybrene (8 μg/mL) for a duration of 5 hours. The virus was then replaced with fresh medium containing 10% FBS and 100 units/mL penicillin, 100 μg/mL streptomycin, and 2 mM L-glutamine mixture. […]

UGT1A4 = assay: Hepatic enzyme induction (mRNA) in primary human hepatocytes, UGT1A4; format: in vitro ADME; conditions: 72 hours, doses of 0.5 uM and 5 uM
Method: as §3, §4

22Rv1-Lenti vector cells = assay: Colony formation in control 22Rv1 cells transduced with lentiviral vector alone; format: cell-based; conditions: control 22Rv1 cells (vector), with DHT
Method: as §2, §5

VCaP cells = assay: Cell viability (MTT) assay, monolayer growth of VCaP cells; format: cell-based; conditions: dose range 2.5 uM-10 uM; dose-dependent
Method: (§6) Cells from monolayer cultures were trypsinized and seeded in 96-well plates coated with poly(d-lysine) at a density of 4000 cells per well (for 22Rv1 cells and LNCaP cells) or 5000 cells per well (for VCaP cells). The media used were the same as the growth media described above for each cell line. The plates were incubated at 37° C. in 5% CO2. Twenty-four hours later, the cells were treated with the indicated compound or dimethylsulfoxide (vehicle). The culture medium was replaced with fresh media containing vehicle or the appropriate concentration of compound at the end of 48 hours during the time course of the assay. Cell viability was determined on Day 0 and at the various time points using the standard 3-(4,5-dimethylthiazol-2-yl)-2,5-diphenyltetrazolium bromide (MTT) assay. The assays ware conducted in replicates of six wells per condition and values plotted as percent of the Day 0 values.

CWR22Rv1-AR-EK cells = assay: MTT growth assay in CWR22Rv1-AR-EK cells; format: cell-based; conditions: three or four days
Method: This model cell line thus mimics aggressively growing advanced prostate cancer tumor cells that are insensitive to current treatments such as testosterone suppression and androgen antagonists that cannot affect AR-Vs. Since KCI838 disrupts interaction of ELK1 with wtAR as well as AR-Vs, the effect of KCI838 on the growth of CWR22Rv1-AR-EK cells was tested. For this test, the cells were seeded in phenol red-free growth media. 24 hours later, the cells were treated with KCI838, FIG. 12A, or enzalutamide, FIG. 12B, at the indicated concentrations. Cells were grown for three or four days with replenishment of the drug at 48 hours. Cell viability was measured using the MTT assay.

22Rv1 cells [7] = assay: Cell viability (MTT) assay, monolayer growth of 22Rv1 cells; format: cell-based; conditions: enzalutamide-resistant 22Rv1 CRPC monolayers; 2.5 uM, 5 uM and 10 uM
Method: as §6

Structure (SMILES): O=c1cc(-c2cccc(O)c2)n(CC(F)(F)F)c2cccc(O)c12 [KCI838]
- inhibition at 0.4 µM (binding of AR to ELK1; 0.4 μM): 60%
- inhibition at 10 µM (binding of AR to ELK1; 10 μM): 95%
- viability of HEK293 cells (HEK293 cells): virtually completely viable
- signs of toxicity ([1]; 6-week old male BalbC mice, repeated intraperitoneal injection, 200 mg/Kg and 100 mg/Kg): no apparent signs of toxicity
- initial weight loss ([1]; 100 mg/Kg): ~2%
- initial weight loss ([1]; 200 mg/Kg): ~4%
- IC50 (UGT1A1 [2]; standard enzymatic activity assay, read-out: IC50 value for UGT1A1): 35900 nM
- IC50 (22Rv1 cells [3]; Homo sapiens, read-out: IC50 of colony counts): ~60 nM
- induction of UGT1A1 (UGT1A1 [4]): not induced significantly
- IC50 (CYP1A2 [5]): 2920 nM
- induction of CYP1A2 (CYP1A2 [6]; 0.5 uM dose): unable to induce CYP1A2
- induction of CYP1A2 (CYP1A2 [6]; higher doses than 0.5 uM): induce the enzyme
- inhibition of colony formation at 68 nM (22Rv1-Lenti AR cells; 68 nM): no inhibition
- IC50 (22Rv1-Lenti AR cells; Homo sapiens, with DHT, read-out: IC50 for inhibition of colony formation): 132 nM
- induction of UGT1A4 (UGT1A4): not induced significantly
- IC50 (22Rv1-Lenti vector cells; Homo sapiens, read-out: IC50 for inhibition of colony formation): 68 nM
- IC75 for inhibition of colony formation (22Rv1-Lenti vector cells): 121 nM

- IC50 (UGT1A1 [2]; human UGT1A1 Supersomes, probe substrate estradiol (10 μM), 30 min at 37° C., read-out: IC50): 792 nM
Structure (SMILES): COC(=O)N[C@H](C(=O)N[C@@H](Cc1ccccc1)[C@@H](O)CN(Cc1ccc(-c2ccccn2)cc1)NC(=O)[C@@H](NC(=O)OC)C(C)(C)C)C(C)(C)C [atazanavir, reference compound]

Structure (SMILES): CNC(=O)c1ccc(N2C(=S)N(c3ccc(C#N)c(C(F)(F)F)c3)C(=O)C2(C)C)cc1F [enzalutamide]
- monolayer growth of VCaP cells (VCaP cells): inhibited monolayer growth
- growth of CWR22Rv1-AR-EK cells (CWR22Rv1-AR-EK cells): insensitive
- time course of growth inhibition (22Rv1 cells [7]): did not inhibit cell growth
- effect on colony formation (22Rv1 cells [3]; nanomolar dose range): no effect on colony formation
